Patent publication US12077503B2, “Substituted cyclic amides and their use as herbicides” (FMC CORPORATION, priority 2015, dated 2024)

Columns and labels:
Format in all cases: in vivo
[1] = tested on: pigweed (Amaranthus retroflexus); experiment: Test A postemergence; conditions: postemergence; for Pigweed plant response rating: 125 g ai/ha, visual injury rating on 0 to 100 scale (0 no effect, 100 complete control), approx. 10 d; for Plant response rating, Pigweed: 500 g ai/ha, 0 to 100 scale, 0 no effect, 100 complete control
Method in brief: (§1)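 Visual injury, scored on a 0–100 scale relative to untreated controls, was recorded about 10 d after application. Treatments were a preemergence soil spray over planted seeds or a postemergence spray on plants at the one- to two-leaf stage, 2 to 10 cm tall, all in loam soil–sand blend in the greenhouse.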

[2] = tested on: blackgrass (Alopecurus myosuroides); experiment: Test A postemergence; conditions: postemergence; for Blackgrass plant response rating: 125 g ai/ha, visual injury rating on 0 to 100 scale (0 no effect, 100 complete control), approx. 10 d; for Plant response rating, Blackgrass: 500 g ai/ha, 0 to 100 scale, 0 no effect, 100 complete control
Method in brief: as §1

[3] = tested on: wheat (Triticum aestivum); experiment: Test A postemergence; conditions: postemergence; for Wheat plant response rating: 125 g ai/ha, visual injury rating on 0 to 100 scale (0 no effect, 100 complete control), approx. 10 d; for Plant response rating, Wheat: 500 g ai/ha, 0 to 100 scale, 0 no effect, 100 complete control
Method in brief: as §1

[4] = tested on: ryegrass, Italian (Italian ryegrass, Lolium multiflorum); experiment: Test A postemergence; conditions: postemergence; for Ryegrass, Italian plant response rating: 125 g ai/ha, visual injury rating on 0 to 100 scale (0 no effect, 100 complete control), approx. 10 d; for Plant response rating, Ryegrass, Italian: 500 g ai/ha, 0 to 100 scale, 0 no effect, 100 complete control
Method in brief: as §1

[5] = tested on: giant foxtail (Setaria faberii); experiment: Test A postemergence; conditions: postemergence; for Foxtail, Giant plant response rating: 125 g ai/ha, visual injury rating on 0 to 100 scale (0 no effect, 100 complete control), approx. 10 d; for Plant response rating, Foxtail, Giant: 500 g ai/ha, 0 to 100 scale, 0 no effect, 100 complete control
Method in brief: as §1

[6] = tested on: Galium (catchweed bedstraw, Galium aparine); experiment: Test A postemergence; conditions: postemergence; for Galium plant response rating: 125 g ai/ha, visual injury rating on 0 to 100 scale (0 no effect, 100 complete control), approx. 10 d; for Plant response rating, Galium: 500 g ai/ha, 0 to 100 scale, 0 no effect, 100 complete control
Method in brief: as §1

[7] = tested on: ragweed (common ragweed, Ambrosia elatior); experiment: Test A postemergence; conditions: postemergence; for Ragweed plant response rating: 125 g ai/ha, visual injury rating on 0 to 100 scale (0 no effect, 100 complete control), approx. 10 d; for Plant response rating, Ragweed: 500 g ai/ha, 0 to 100 scale, 0 no effect, 100 complete control
Method in brief: as §1

[8] = tested on: barnyardgrass (Echinochloa crus-galli); experiment: Test A postemergence; conditions: postemergence; for Barnyardgrass plant response rating: 125 g ai/ha, visual injury rating on 0 to 100 scale (0 no effect, 100 complete control), approx. 10 d; for Plant response rating, Barnyardgrass: 500 g ai/ha, 0 to 100 scale, 0 no effect, 100 complete control
Method in brief: as §1

corn (Zea mays) = experiment: Test A postemergence; conditions: postemergence; for Corn plant response rating: 125 g ai/ha, visual injury rating on 0 to 100 scale (0 no effect, 100 complete control), approx. 10 d; for Plant response rating, Corn: 500 g ai/ha, 0 to 100 scale, 0 no effect, 100 complete control
Method in brief: as §1

Kochia (Kochia scoparia) [9] = experiment: Test A postemergence; conditions: postemergence; for Kochia plant response rating: 125 g ai/ha, visual injury rating on 0 to 100 scale (0 no effect, 100 complete control), approx. 10 d; for Plant response rating, Kochia: 500 g ai/ha, 0 to 100 scale, 0 no effect, 100 complete control
Method in brief: as §1

[10] = tested on: johnsongrass (Sorghum halepense); experiment: Test C preemergence; conditions: scale 0 to 100, 0 no effect, 100 complete control
Excerpt: Seeds of plant species selected from blackgrass (Alopecurus myosuroides), ryegrass, Italian (Italian ryegrass, Lolium multiflorum), wheat (winter wheat, Triticum aestivum), Galium (catchweed bedstraw, Galium aparine), corn (Zea mays), crabgrass, large (large crabgrass, Digitaria sanguinalis), foxtail, giant (giant foxtail, Setaria faberii), johnsongrass (Sorghum halepense), lambsquarters (Chenopodium album), morningglory (Ipomoea coccinea), nutsedge, yellow (yellow nutsedge, Cyperus esculentus), pigweed (Amaranthus retroflexus), ragweed (common ragweed, Ambrosia elatior), soybean (Glycine max), barnyardgrass (Echinochloa crus-galli), oilseed rape (Brassica napus), waterhemp (common waterhemp, Amaranthus rudis) and velvetleaf (Abutilon theophrasti) were planted into a blend of loam soil and sand and treated preemergence with test chemicals formulated in a non-phytotoxic solvent mixture which included a surfactant.
At the same time, plants selected from these crop and weed species and also Kochia (Kochia scoparia), oat, wild (wild oat, Avena fatua), and chickweed (common chickweed, Stellaria media) were planted in pots containing Sunshine Redi-Earth® planting medium comprising spaghnum peat moss, vermiculite, starter nutrients and dolomitic limestone and treated with postemergence applications of test chemicals formulated in the same manner. Plants ranged in height from 2 to 18 cm (1- to 4-leaf stage) for postemergence treatments. Treated plants and controls were maintained in a greenhouse for 13 to 15 d, after which time all species were compared to controls and visually evaluated. Plant response ratings, summarized in Table C, are based on a scale of 0 to 100 where 0 is no effect and 100 is complete control. A dash (-) response means no test result.

[11] = tested on: pigweed (Amaranthus retroflexus); experiment: Test A preemergence; conditions: for Plant response rating, Pigweed: 125 g ai/ha, preemergence, 0 to 100 scale (0 no effect, 100 complete control); for Pigweed plant response rating (0 to 100 scale, 0 is no effect, 100 is complete control): Preemergence, 500 g ai/ha, visual injury approx. 10 d
[12] = tested on: ryegrass, Italian (Italian ryegrass, Lolium multiflorum); experiment: Test A preemergence; conditions: for Plant response rating, Ryegrass, Italian: 125 g ai/ha, preemergence, 0 to 100 scale (0 no effect, 100 complete control); for Ryegrass, Italian plant response rating (0 to 100 scale, 0 is no effect, 100 is complete control): Preemergence, 500 g ai/ha, visual injury approx. 10 d
Method in brief: as §1

[13] = tested on: giant foxtail (Setaria faberii); experiment: Test A preemergence; conditions: for Plant response rating, Foxtail, Giant: 125 g ai/ha, preemergence, 0 to 100 scale (0 no effect, 100 complete control); for Foxtail, Giant plant response rating (0 to 100 scale, 0 is no effect, 100 is complete control): Preemergence, 500 g ai/ha, visual injury approx. 10 d
Method in brief: as §1

[14] = tested on: ragweed (common ragweed, Ambrosia elatior); experiment: Test A preemergence; conditions: for Plant response rating, Ragweed: 125 g ai/ha, preemergence, 0 to 100 scale (0 no effect, 100 complete control)
Method in brief: as §1

[15] = tested on: barnyardgrass (Echinochloa crus-galli); experiment: Test A preemergence; conditions: for Plant response rating, Barnyardgrass: 125 g ai/ha, preemergence, 0 to 100 scale (0 no effect, 100 complete control); for Barnyardgrass plant response rating (0 to 100 scale, 0 is no effect, 100 is complete control): Preemergence, 500 g ai/ha, visual injury approx. 10 d
Method in brief: as §1

Kochia (Kochia scoparia) [16] = experiment: Test A preemergence; conditions: for Plant response rating, Kochia: 125 g ai/ha, preemergence, 0 to 100 scale (0 no effect, 100 complete control); for Kochia plant response rating (0 to 100 scale, 0 is no effect, 100 is complete control): Preemergence, 500 g ai/ha, visual injury approx. 10 d
Method in brief: as §1

[17] = tested on: ducksalad (Heteranthera limosa); experiment: Test B flooded paddy test; conditions: Flood, 250 g ai/ha; 0 to 100 scale where 0 is no effect and 100 is complete control; 13 to 15 d
Method in brief: (§2)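 Response scored visually against untreated controls, 0 = no effect and 100 = complete control, 13–15 d after treatment in the greenhouse. Compounds added to paddy water held 3 cm above soil surface. Treatment given at 2-leaf stage.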

[18] = tested on: sedge, umbrella (small-flower umbrella sedge, Cyperus difformis); experiment: Test B flooded paddy test; conditions: Flood, 250 g ai/ha; 0 to 100 scale where 0 is no effect and 100 is complete control; 13 to 15 d
Method in brief: as §2

[19] = tested on: barnyardgrass (Echinochloa crus-galli); experiment: Test B flooded paddy test; conditions: Flood, 250 g ai/ha; 0 to 100 scale where 0 is no effect and 100 is complete control; 13 to 15 d
Method in brief: as §2

rice (Oryra sativa) = experiment: Test B flooded paddy test; conditions: Flood, 250 g ai/ha; 0 to 100 scale where 0 is no effect and 100 is complete control; 13 to 15 d
Method in brief: as §2

Row | Structure (SMILES) | Pigweed plant response rating [1] | Plant response rating, Pigweed [1] | Blackgrass plant response rating [2] | Plant response rating, Blackgrass [2] | Wheat plant response rating [3] | Plant response rating, Wheat [3] | Ryegrass, Italian plant response rating [4] | Plant response rating, Ryegrass, Italian [4] | Foxtail, Giant plant response rating [5] | Plant response rating, Foxtail, Giant [5] | Galium plant response rating [6] | Plant response rating, Galium [6] | Ragweed plant response rating [7] | Plant response rating, Ragweed [7] | Barnyardgrass plant response rating [8] | Plant response rating, Barnyardgrass [8] | Corn plant response rating (corn (Zea mays)) | Plant response rating, Corn (corn (Zea mays)) | Kochia plant response rating (Kochia (Kochia scoparia) [9]) | Plant response rating, Kochia (Kochia (Kochia scoparia) [9]) | other results
1 | Cc1ccc(C2CN(C)C(=O)C2C(=O)Nc2cccc(F)c2F)cc1F (stereo not drawn) [Compound 464] | 40 | 50 | 60 | 70 | 70 | 70 | 70 | 80 | 90 | 90 | 60 | 70 | 30 | 30 | 90 | 90 | 90 | 90 | 50 | 60 | Plant response rating, Johnsongrass ([10]; 31 g ai/ha): 35; Plant response rating, Johnsongrass ([10]; 62 g ai/ha): 80; Plant response rating, Johnsongrass ([10]; 125 g ai/ha): 85; Plant response rating, Johnsongrass ([10]; 250 g ai/ha): 95; Plant response rating, Pigweed [11]: 70; Pigweed plant response rating (0 to 100 scale, 0 is no effect, 100 is complete control) [11]: 70; Plant response rating, Ryegrass, Italian [12]: 70; Ryegrass, Italian plant response rating (0 to 100 scale, 0 is no effect, 100 is complete control) [12]: 90; Plant response rating, Foxtail, Giant [13]: 90; Foxtail, Giant plant response rating (0 to 100 scale, 0 is no effect, 100 is complete control) [13]: 90; Plant response rating, Ragweed [14]: 50; Plant response rating, Barnyardgrass [15]: 90; Barnyardgrass plant response rating (0 to 100 scale, 0 is no effect, 100 is complete control) [15]: 90; Plant response rating, Kochia (Kochia (Kochia scoparia) [16]): 70; Kochia plant response rating (0 to 100 scale, 0 is no effect, 100 is complete control) (Kochia (Kochia scoparia) [16]): 80; Plant response rating, Ducksalad [17]: 100; Plant response rating, Sedge, Umbrella [18]: 0; Plant response rating, Barnyardgrass [19]: 70; Plant response rating, Rice (rice (Oryra sativa)): 20
2 | CN1CC(c2cccc(C(F)(F)F)c2)C(C)(C(=O)Nc2ccccc2F)C1=O (stereo not drawn) [Compound 428] | 0 | 20 | 40 | 70 | 30 | 60 | 30 | 30 | 80 | 90 | 50 | 60 | 0 | 0 | 90 | 90 | 30 | 60 | 30 | 70 | Plant response rating, Johnsongrass ([10]; 31 g ai/ha): 5; Plant response rating, Johnsongrass ([10]; 62 g ai/ha): 50; Plant response rating, Johnsongrass ([10]; 125 g ai/ha): 65; Plant response rating, Johnsongrass ([10]; 250 g ai/ha): 75; Plant response rating, Pigweed [11]: 0; Pigweed plant response rating (0 to 100 scale, 0 is no effect, 100 is complete control) [11]: 20; Plant response rating, Ryegrass, Italian [12]: 20; Ryegrass, Italian plant response rating (0 to 100 scale, 0 is no effect, 100 is complete control) [12]: 30; Plant response rating, Foxtail, Giant [13]: 90; Foxtail, Giant plant response rating (0 to 100 scale, 0 is no effect, 100 is complete control) [13]: 90; Plant response rating, Ragweed [14]: 0; Ragweed plant response rating (0 to 100 scale, 0 is no effect, 100 is complete control) ([14]; Preemergence, 500 g ai/ha, visual injury approx. 10 d): 0; Plant response rating, Barnyardgrass [15]: 90; Barnyardgrass plant response rating (0 to 100 scale, 0 is no effect, 100 is complete control) [15]: 90; Plant response rating, Kochia (Kochia (Kochia scoparia) [16]): 50; Kochia plant response rating (0 to 100 scale, 0 is no effect, 100 is complete control) (Kochia (Kochia scoparia) [16]): 50
